Values of other authors as cited in patent US20080097335A1, “OCULAR IMPLANT DELIVERY ASSEMBLIES” (ALLERGAN, INC., priority 2006, published 2008).

Settings: efficacy in vivo; 25 mg dose of hydrocortisone equivalent to 1 mg dose of dexamethasone

Structure (SMILES): C[C@]12CCC(=O)C=C1CC[C@@H]1[C@@H]2[C@@H](O)C[C@@]2(C)[C@H]1CC[C@]2(O)C(=O)CO [hydrocortisone]
- potency relative to dexamethasone: approximately twenty-five fold less potent than dexamethasone
